Results on one molecule are retold here after PMC4522657, “Identification of a DYRK1A Inhibitor that Induces Degradation of the Target Kinase using Co-chaperone CDC37 fused with Luciferase nanoKAZ” (Scientific Reports, 2015).

In assay [1] the target is T1, CaMK2β (Homo sapiens, UniProt Q13554).
T1 construct: purchased Carna Biosciences
As to the kind of experiment: Kinase panel, CaNDY 1 µM. Type of assay: biochemical. Particulars: CaNDY 1 µM relative to DMSO.

The target of assay [2] is T2, PBK (Homo sapiens, UniProt Q96KB5).
T2 construct: purchased Carna Biosciences
Description: Kinase panel, CaNDY 1 µM. It is filed as biochemical. To be noted: CaNDY 1 µM relative to DMSO.

Assay [3] addresses T3, CaMK2γ (Homo sapiens, UniProt Q13555).
T3 construct: purchased Carna Biosciences
As to the kind of experiment: Kinase panel, CaNDY 1 µM. It is filed as biochemical. To be noted: CaNDY 1 µM relative to DMSO.

The target in assay [4] is T4, MLK2_Cascade (Homo sapiens, UniProt Q02779).
T4 construct: purchased Carna Biosciences
As to the kind of experiment: Kinase panel, CaNDY 1 µM. Type of assay: biochemical. Particulars: CaNDY 1 µM relative to DMSO.

Assay [5] concerns the target T5, CLK1 (Homo sapiens, UniProt P49759). As to the kind of experiment: Kinase panel, CaNDY 1 µM. Also on record: purchased Carna Biosciences. It is filed as biochemical. The text has this:
Detailed information on the assay conditions is available on the website of Carna Biosciences (http://www.carnabio.com/english/index.html; Kobe, Japan). In brief, full-length human recombinant kinases were expressed using a baculovirus expression system as amino-terminal GST-fusion proteins, and purified by glutathione-Sepharose chromatography. The GenBank accession numbers of DYRK1A, DYRK1B, DYRK2, and DYRK3 were NP_001387.2, NP_004705.1, NP_003574.1, and NP_003573.2. […] For each compound, a DMSO solution was diluted in assay buffer to yield a final concentration of 1% DMSO. After incubation for one hour at room temperature, substrate phosphorylation was analyzed by electrophoretic separation of the substrate and products using a Caliper LC3000 platform (Caliper Life Sciences, Mountain View, CA, USA). The phosphorylated product (P)/(P + substrate) ratio was calculated at each concentration of each small molecule and the percent inhibition was expressed relative to a control assay in the absence of the small molecule. […] The IC50 of each compound was calculated by interpolation on a log-concentration-response curve fitted with a four-parameter logistic equation.
All kinase assays were carried out at Carna Biosciences. The inhibitory map was made with Kinome Render[36].

In assay [6] the target is T6, PYK2 (Homo sapiens, UniProt Q14289).
T6 construct: purchased Carna Biosciences
T6 sequence (Q14289 whole entry): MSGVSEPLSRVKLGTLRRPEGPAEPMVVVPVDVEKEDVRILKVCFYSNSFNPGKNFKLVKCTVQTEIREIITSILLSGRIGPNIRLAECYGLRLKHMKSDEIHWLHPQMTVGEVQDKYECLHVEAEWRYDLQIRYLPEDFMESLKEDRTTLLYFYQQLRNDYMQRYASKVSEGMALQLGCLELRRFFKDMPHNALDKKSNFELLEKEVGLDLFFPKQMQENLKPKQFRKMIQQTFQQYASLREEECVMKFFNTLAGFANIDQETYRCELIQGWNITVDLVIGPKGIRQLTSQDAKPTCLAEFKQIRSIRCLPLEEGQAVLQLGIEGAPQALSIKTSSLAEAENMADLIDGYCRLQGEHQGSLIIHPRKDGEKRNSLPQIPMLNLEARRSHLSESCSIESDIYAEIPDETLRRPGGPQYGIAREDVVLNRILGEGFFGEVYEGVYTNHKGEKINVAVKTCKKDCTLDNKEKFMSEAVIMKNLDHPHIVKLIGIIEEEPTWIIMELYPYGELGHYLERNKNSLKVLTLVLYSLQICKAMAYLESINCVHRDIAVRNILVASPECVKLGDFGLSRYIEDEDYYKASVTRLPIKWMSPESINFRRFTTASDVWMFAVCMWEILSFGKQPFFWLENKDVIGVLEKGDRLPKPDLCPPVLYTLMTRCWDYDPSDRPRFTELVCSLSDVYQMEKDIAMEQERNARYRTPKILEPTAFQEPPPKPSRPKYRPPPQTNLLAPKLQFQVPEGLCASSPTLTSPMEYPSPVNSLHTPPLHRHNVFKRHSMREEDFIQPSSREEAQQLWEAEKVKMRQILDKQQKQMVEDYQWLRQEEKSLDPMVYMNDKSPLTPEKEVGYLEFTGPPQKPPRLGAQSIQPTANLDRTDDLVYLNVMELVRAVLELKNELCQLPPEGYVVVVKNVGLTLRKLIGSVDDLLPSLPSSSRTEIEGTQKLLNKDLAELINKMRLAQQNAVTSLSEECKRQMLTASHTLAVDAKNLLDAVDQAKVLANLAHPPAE
Description: Kinase panel, CaNDY 1 µM. Type of assay: biochemical. Particulars: CaNDY 1 µM relative to DMSO.

Assay [7] concerns the target T7, MAPKAPK3 (Homo sapiens, UniProt Q16644).
T7 construct: purchased Carna Biosciences
As to the kind of experiment: Kinase panel, CaNDY 1 µM. To be noted: CaNDY 1 µM relative to DMSO. It is filed as biochemical.

The target of assay [8] is T8, pre-accumulated 3xFLAG-DYRK1A (Homo sapiens, UniProt Q13627).
T8 construct: F2A peptide linking to EGFP (2A skipping releases EGFP; a 2A remnant may stay on DYRK1A) (C); expressed in transfected cells; host or cells: HEK293
As to the kind of experiment: Pre-accumulated DYRK1A after cycloheximide, Western blot in HEK293 cells. It is filed as cell-based. Particulars: cycloheximide 1 mg/mL pre-treatment, CaNDY 2 µM, 0-24 h. Here is the method:
(§1) Western blot analysis was performed using the antibodies described above. In brief, total cell lysates were separated by SDS-PAGE (5–20% gels; ATTO, Tokyo, Japan) under reducing conditions and then transferred to a PVDF membrane (PALL, SP, Brazil). Antibody reactions were performed with Can Get Signal® Immunoreaction Enhancer Solution (Toyobo). Peroxidase activities on the membrane were visualized with ECL Western Blotting Detection Reagents (GE Healthcare) or ImmunoStar® LD (Wako Pure Chemical Industries, Osaka, Japan), and a ChemiDoc^TM MP Imaging System (Bio-Rad, Hercules, CA, USA).
Targeting the DYRK1A/CDC37 complex
HEK293 cells were transfected with an expression vector for 3xFLAG-DYRK1A. At 48 h after transfection, the cells were pre-treated with 1 mg/mL cycloheximide (CHX) to stop protein synthesis, and then treated with CaNDY (2 µM) for the indicated time (0-24 h). The total cell lysates were subjected to SDS-PAGE followed by Western blot analysis.
(1 picture or pasted object on this page, not shown here)
Background: In western blotting, separated proteins are transferred to a membrane and probed.

Assay [9] deals with T9, TAOK2 (Homo sapiens, UniProt Q9UL54).
T9 construct: purchased Carna Biosciences
As to the kind of experiment: Kinase panel, CaNDY 1 µM. To be noted: CaNDY 1 µM relative to DMSO. Type of assay: biochemical.

Assay [10] deals with T10, TRKA (Homo sapiens, UniProt P04629).
T10 construct: purchased Carna Biosciences
Description: Kinase panel, CaNDY 1 µM. It is filed as biochemical. To be noted: CaNDY 1 µM relative to DMSO.

Assay [11] has as its target T11, RSK1 (Homo sapiens, UniProt Q15418).
T11 construct: purchased Carna Biosciences
Description: Kinase panel, CaNDY 1 µM. It is filed as biochemical. To be noted: CaNDY 1 µM relative to DMSO.

Assay [12] deals with T12, PDGFRα(T674I) (Homo sapiens, UniProt P16234, T674I).
T12 construct: purchased Carna Biosciences
T12 sequence (P16234 24-1089 T674I): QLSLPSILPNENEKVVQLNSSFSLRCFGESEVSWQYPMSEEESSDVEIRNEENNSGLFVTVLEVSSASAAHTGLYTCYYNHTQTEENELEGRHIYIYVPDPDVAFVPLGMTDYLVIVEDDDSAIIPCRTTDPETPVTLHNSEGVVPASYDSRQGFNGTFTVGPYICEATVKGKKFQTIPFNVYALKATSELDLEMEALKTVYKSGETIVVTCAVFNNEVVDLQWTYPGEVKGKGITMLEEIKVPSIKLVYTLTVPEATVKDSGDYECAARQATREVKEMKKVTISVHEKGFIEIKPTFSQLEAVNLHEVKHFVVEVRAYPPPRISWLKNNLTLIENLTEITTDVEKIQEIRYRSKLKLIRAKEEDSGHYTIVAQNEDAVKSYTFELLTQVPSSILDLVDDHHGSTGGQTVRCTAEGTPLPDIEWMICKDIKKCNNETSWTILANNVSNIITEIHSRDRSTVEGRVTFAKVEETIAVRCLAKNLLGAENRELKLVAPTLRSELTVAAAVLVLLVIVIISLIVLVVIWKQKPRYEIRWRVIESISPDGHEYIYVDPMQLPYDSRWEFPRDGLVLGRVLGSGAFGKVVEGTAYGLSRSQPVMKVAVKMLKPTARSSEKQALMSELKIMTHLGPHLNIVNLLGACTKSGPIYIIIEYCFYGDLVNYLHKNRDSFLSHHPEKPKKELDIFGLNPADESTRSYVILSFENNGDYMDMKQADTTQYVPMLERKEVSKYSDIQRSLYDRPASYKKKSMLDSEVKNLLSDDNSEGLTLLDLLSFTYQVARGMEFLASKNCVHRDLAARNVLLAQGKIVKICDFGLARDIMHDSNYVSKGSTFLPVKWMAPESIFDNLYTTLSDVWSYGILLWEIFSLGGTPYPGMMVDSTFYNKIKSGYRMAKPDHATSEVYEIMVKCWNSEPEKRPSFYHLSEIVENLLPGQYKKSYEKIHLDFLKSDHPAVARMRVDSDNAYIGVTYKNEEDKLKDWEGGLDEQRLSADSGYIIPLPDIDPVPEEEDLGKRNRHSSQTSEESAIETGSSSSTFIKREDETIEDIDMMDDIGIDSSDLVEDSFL
Description: Kinase panel, CaNDY 1 µM. It is filed as biochemical. Particulars: CaNDY 1 µM relative to DMSO.

The target of assay [13] is T13, Haspin (Homo sapiens, UniProt Q8TF76).
T13 sequence (Q8TF76 1-798): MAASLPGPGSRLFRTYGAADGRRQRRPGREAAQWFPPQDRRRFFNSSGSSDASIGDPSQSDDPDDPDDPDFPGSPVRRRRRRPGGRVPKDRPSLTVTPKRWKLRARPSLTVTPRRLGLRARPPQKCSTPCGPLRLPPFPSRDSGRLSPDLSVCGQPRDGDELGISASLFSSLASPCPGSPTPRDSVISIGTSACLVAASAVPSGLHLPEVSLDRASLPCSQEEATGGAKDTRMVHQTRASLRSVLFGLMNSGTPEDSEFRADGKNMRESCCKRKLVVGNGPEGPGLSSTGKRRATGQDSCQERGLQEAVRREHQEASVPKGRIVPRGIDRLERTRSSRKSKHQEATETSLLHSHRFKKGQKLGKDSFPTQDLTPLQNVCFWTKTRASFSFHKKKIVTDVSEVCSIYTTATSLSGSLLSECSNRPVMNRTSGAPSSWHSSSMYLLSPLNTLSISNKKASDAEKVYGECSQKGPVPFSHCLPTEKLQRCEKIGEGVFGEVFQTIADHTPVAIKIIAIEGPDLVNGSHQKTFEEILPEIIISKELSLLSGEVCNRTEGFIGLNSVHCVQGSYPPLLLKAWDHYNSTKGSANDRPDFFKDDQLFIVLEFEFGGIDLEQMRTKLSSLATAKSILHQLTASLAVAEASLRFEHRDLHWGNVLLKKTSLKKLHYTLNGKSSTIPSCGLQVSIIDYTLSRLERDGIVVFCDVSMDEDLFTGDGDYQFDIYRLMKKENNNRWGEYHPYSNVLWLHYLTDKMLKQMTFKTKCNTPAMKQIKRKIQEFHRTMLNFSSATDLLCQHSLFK
As to the kind of experiment: Western blot of target kinase expression in HEK293 cells. Also on record: endogenous in cells; host or cells: HEK293. Particulars: CaNDY 2 μM, 4 days. It is filed as cell-based. The method, then: (§2) To check selectivity of CaNDY for other kinases, we first examined protein expression of several kinases in HEK293 cells treated with CaNDY (2 μM) for 4 days. […] Third, protein expression of these kinases targeted by CaNDY (DYRK1A, DYRK1B, CLK1, and Haspin) was reassessed by Western blot analysis as performed in Fig. 7b.
as §1

Assay [14] has as its target T5, CLK1. The description is as above. It is filed as cell-based. Also on record: endogenous in cells; host or cells: HEK293. Particulars: CaNDY 2 μM, 4 days. Here is the method: as §2, §1

T5 sequence (P49759 whole entry, the tested form may be a part): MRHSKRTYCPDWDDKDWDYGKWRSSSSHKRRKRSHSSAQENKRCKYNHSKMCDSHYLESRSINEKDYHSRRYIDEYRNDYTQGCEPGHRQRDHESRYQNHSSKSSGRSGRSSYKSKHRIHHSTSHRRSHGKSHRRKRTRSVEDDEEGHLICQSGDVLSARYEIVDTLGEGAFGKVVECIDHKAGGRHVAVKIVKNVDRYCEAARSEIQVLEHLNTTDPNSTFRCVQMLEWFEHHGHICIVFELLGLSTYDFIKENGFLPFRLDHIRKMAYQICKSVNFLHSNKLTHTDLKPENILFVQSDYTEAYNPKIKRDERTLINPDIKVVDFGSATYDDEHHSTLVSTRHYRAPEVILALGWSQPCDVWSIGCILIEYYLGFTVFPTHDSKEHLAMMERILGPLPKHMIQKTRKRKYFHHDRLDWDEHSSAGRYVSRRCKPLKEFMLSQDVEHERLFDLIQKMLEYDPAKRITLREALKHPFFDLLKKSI
T1 sequence (Q13554 whole entry): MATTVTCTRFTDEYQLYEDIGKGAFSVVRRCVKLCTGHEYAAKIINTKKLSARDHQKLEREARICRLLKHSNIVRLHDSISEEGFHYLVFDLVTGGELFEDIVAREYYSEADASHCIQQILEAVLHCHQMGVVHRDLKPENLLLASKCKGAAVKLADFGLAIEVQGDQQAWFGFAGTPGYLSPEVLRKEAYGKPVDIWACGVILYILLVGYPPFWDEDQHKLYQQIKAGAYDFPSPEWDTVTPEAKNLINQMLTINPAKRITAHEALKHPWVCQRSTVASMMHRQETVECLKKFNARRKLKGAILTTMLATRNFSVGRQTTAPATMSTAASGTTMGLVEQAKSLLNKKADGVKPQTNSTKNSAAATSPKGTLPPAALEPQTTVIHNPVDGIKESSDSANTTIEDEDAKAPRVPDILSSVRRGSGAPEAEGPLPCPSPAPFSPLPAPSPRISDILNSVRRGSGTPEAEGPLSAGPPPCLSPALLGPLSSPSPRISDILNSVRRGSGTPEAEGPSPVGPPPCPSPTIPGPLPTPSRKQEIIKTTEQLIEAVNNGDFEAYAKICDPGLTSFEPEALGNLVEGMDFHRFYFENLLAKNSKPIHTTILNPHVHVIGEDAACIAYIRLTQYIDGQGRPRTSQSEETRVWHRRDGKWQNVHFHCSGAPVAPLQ
T3 sequence (Q13555 whole entry): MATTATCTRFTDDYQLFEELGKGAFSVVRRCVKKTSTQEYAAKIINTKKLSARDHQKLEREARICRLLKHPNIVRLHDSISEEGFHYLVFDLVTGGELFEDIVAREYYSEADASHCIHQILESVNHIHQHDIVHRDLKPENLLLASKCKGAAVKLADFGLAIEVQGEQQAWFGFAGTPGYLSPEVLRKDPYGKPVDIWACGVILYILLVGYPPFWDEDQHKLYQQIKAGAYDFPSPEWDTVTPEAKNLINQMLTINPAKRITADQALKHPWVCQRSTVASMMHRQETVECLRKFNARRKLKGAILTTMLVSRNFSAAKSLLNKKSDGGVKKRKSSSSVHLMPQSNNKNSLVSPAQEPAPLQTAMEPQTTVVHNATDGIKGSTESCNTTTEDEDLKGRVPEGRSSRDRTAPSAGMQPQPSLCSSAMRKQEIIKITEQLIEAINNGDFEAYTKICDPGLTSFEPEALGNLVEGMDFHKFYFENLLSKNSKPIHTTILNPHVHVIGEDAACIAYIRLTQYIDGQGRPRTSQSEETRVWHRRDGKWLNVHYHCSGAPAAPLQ
T7 sequence (Q16644 whole entry): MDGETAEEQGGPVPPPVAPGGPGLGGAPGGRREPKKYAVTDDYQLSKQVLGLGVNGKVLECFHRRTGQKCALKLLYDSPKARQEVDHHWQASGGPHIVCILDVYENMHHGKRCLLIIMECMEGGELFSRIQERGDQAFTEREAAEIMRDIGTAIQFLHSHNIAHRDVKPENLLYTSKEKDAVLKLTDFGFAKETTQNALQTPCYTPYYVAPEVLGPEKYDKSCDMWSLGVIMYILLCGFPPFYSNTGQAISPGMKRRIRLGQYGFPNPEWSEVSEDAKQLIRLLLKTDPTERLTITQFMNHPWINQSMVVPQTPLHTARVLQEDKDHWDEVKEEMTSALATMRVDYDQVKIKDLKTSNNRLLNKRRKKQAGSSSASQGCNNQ
T11 sequence (Q15418 whole entry): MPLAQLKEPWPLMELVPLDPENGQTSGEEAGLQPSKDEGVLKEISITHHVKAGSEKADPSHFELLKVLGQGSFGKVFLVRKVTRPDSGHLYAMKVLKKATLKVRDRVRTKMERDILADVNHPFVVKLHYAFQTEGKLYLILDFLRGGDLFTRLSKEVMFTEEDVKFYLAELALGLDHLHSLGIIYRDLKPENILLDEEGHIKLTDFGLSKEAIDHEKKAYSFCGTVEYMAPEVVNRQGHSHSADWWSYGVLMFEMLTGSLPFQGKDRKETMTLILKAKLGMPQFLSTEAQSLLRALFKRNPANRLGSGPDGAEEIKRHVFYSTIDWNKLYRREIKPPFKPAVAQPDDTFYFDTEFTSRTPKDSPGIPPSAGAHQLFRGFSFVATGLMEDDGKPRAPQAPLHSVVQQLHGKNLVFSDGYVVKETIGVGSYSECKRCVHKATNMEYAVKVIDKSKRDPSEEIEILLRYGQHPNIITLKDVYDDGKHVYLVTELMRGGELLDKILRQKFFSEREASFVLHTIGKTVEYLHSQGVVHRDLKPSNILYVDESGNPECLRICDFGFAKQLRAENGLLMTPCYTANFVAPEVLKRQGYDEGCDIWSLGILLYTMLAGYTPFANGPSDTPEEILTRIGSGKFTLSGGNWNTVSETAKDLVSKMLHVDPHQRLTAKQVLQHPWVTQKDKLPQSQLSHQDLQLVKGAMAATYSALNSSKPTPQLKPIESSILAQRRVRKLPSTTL

`[H]/N=C1/NC(=O)C(=Cc2ccc3c(c2)CCO3)S1` [CaNDY, (Z)-5-[(2,3-dihydrobenzofuran-5-yl)methylene]-2-iminothiazolidin-4-one]: the remaining activity at 1 µM in assay [1] worked out at 98.2%; in assay [2] it was 98.4%; in [3], 101%; in assay [4] it was 124%; in assay [6], 98.7%; in assay [7], 103%. The remaining activity at 1 µM in assay [9] stood at 95.7%; in assay [10], 101%; in assay [11], 91.2%; in [12] it was 94%. Moreover, the “%Activity” value in assay [5] (CLK1, CaNDY 1 µM relative to DMSO) was 3.0%. The inhibition at 1 µM in [5] (read-out: percentage inhibition) is greater than 90%. The “pre-accumulated DYRK1A level” value in assay [8] is “did not decrease pre-accumulated DYRK1A”. In assay [13], the “protein expression of Haspin” value is “decreased expression”. Besides, the “protein expression of CLK1” value in assay [14] is reported as “decreased expression”.

By remaining activity is commonly meant the signal under treatment as a percentage of the control signal. One may read the inhibition as the drop in the measured response relative to a control, in per cent.
